Assays:
Format in all cases: cell-based
HIV-1 strain Ba-L = assay: HIV-1 Ba-L growth inhibition in primary macrophages (p24 ELISA); conditions: Human immunodeficiency virus 1, BAL, Primary macrophage; additional compounds, same assay system (HIV-1Ba-L, primary macrophages), estimated from dose response curves; read-out: Estimated IC50
Method: The inhibition specifically of HIV-1 growth by the compounds of the invention was tested in primary macrophages in vitro using a method similar to that used to assess antibody neutralization (VanCott T C et al (1999)). In the present case, the laboratory adapted HIV-1 strain Ba-L was used, which is known to infect macrophages.
Peripheral Blood Mononuclear Cells (PBMC) were prepared from healthy donors using buffy-coat packs obtained from the Australian Red Cross Blood Service (ARCBS). Blood was received the day following donation, and had been depleted of serum and platelets, leaving a small volume (less than 100 mL) of concentrated leukocytes.
Leukocytes were separated from blood cells and granulocytes by density gradient centrifugation (Ficoll Paque) and washed extensively in PBS^− (without Ca/Mg) to remove platelets. Recovered cells were allowed to adhere to plastic tissue culture flasks (Becton Dickinson) for 2 hr, 37° C., 5% CO2, in media (DMEM (high)/10% AB serum/50 ug/mL gentamicin/2 mM L-glutamine) during which time the myeloid cells formed an adherent monolayer leaving lymphocytes unattached.
Non-adherent lymphocytes were removed by washing with warm PBS^+ (with Ca/Mg) and were generally discarded. In some cases those cells were recovered and frozen in media/10% DMSO for use in viral stock infections. The adherent monocytes were recovered by scraping gently with a plastic cell scraper. The myeloid cells were then plated into 96-well plates at a cell concentration of 1.5×10^6/mL, and allowed to fully differentiate over a period of 14 days.
Macrophages were allowed to differentiate over a 14 day period, with media changes as required. On day 14, cells were infected in the presence of decreasing concentrations of BIT compounds over a range 0-10 μM. Samples of 25 μL culture supernatants were removed from each well on day 7 and fresh media plus compound dilution was added.
After 7 days the samples with and without compound were analysed to assess the level of virus present in the wells, using a p24 ELISA (Innotest). Virus levels in samples were converted to “percentage of control virus growth” values based on the controls (containing no compound). From that dose response curve (example FIG. 1) the IC50 was calculated and used as a measure of compound anti-HIV activity.

[1] = Cytotoxicity to cells in the viral inhibition assay (MTT assay); conditions: human, primary human macrophages, additional compounds, same assay system, MTT, read-out: TC50 (the source's name)
Method: The toxicity of test compounds to cells in the viral inhibition assay was determined using the MTT assay (Pauwels R, et al. (1988); D'Cruz O J et al. (1999); Joo H. (2003)). This method utilises Thiazolyl Blue (MTT), which is added to the cell culture (100 ug/well), and incubated for 4-5 hours whilst the live, metabolically active cells convert the chemical to its purple coloured metabolite, which forms intracellular crystals. The purple colour is measured colourimetrically (570-590 nm) once cells have been permeabilised using acidified isopropanol containing 10% triton X-100. The most intense colour development occurs in wells where the metabolising cells are most numerous. […] Those values were estimated manually from the Percentage Viability vs Concentration dose response curves (FIG. 1). The compound toxicity to cells in culture was taken into account in inhibition experiments and in separate experiments involving increased concentrations of compound. TC50 values were estimated in separate experiments (not shown) where concentrations of compound were greater.

Vpu = target: T1, Vpu (Human immunodeficiency virus type 1 group M subtype B, UniProt P05919); assay: Bacterial bioassay, Vpu; conditions: mean bacterial bioassay score; Vpu of HIV
T1 construct: expressed in transfected cells
Excerpt: (§1) The bacterial bioassay method used in the present example to test the anti-viral activity of the compounds against different viral targets was described in detail in PCT/2004/000866, incorporated in its entirety herein by reference. Vpu, p7 and M referred to in the table are small membrane proteins encoded by HIV, HCV and Dengue viruses, respectively, which have functional activities supporting viral growth and/or replication.

HCV p7 = target: T2, HCV p7 (Hepatitis C virus genotype 1a, UniProt P27958); assay: Bacterial bioassay, HCV p7; parameters: scale not given here; conditions: mean bacterial bioassay score; p7 of HCV
T2 construct: expressed in transfected cells
Excerpt: as §1

Den M = target: T3, Den M (Dengue virus type 1, UniProt P33478); assay: Bacterial bioassay, Den M; parameters: scale not given here; conditions: mean bacterial bioassay score; M protein of Dengue virus
T3 construct: expressed in transfected cells
Excerpt: as §1

T1 sequence (P05919 whole entry): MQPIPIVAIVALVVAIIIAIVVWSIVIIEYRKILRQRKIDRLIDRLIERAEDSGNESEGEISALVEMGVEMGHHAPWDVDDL
T3 sequence (P33478 206-280): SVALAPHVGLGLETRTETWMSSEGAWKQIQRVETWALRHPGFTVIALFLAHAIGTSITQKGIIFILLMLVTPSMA
T2 sequence (P27958 747-809): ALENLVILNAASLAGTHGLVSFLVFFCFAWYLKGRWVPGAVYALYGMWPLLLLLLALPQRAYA

| SMILES | IC50 (HIV-1 strain Ba-L) [µM] | CC50 [1] [µM] | Average Bacterial Assay Score, Vpu (Vpu) | Average Bacterial Assay Score, HCV p7 (HCV p7) | Average Bacterial Assay Score, Den M (Den M) |
| --- | --- | --- | --- | --- | --- |
| Cc1nn(C)c(C)c1-c1cccc2cc(C(=O)NC(=N)N)ccc12 [BIT309, (5-(1,3,5-trimethylpyrazol-4-yl)-2-napthoyl)guanidine] | > 10 | > 50 | 0.12 | 0.00 | 0.00 |
| CC(C)Cn1cc(-c2cccc3cc(C(=O)NC(=N)N)ccc23)cn1 [BIT310, (5-(1-isobutyl-1H-pyrazol-4-yl)-2-napthoyl)guanidine] | < 2.5 | 10 to 50 | 0.00 | 0.00 | 1.60 |
| N=C(N)NC(=O)c1ccc2c(-c3ccoc3)cccc2c1 [BIT311, (5-(3-furyl)-2-napthoyl)guanidine] | < 0.63 | 10 to 50 | 0.42 | 0.42 | 1.60 |
| N=C(N)NC(=O)c1ccc2c(C3CC3)cccc2c1 [BIT312, (5-cyclopropyl-2-napthoyl)guanidine] | < 0.63 | 10 to 50 | 0.50 | 0.80 | 2.25 |
| N=C(N)NC(=O)c1ccc2c(Cl)cccc2c1 [BIT313, (5-chloro-2-napthoyl)guanidine] | < 2.5 | 10 to 50 | 0.30 | 1.30 | 3.00 |

Reference: patent US9440926B2, “Antiviral compounds and methods” (Biotron Limited, priority 2005, dated 2016)
